Results published in US10696947B2, “Culture medium composition for maturating cardiomyocytes derived from pluripotent mammalian stem cells” (Ncardia B.V., priority 2013, dated 2020).
“Also recorded” adds a separate entry of the source.

Legend:
Type in all cases: cell-based
[1] = test system: foetal-like (immature) cardiomyocytes derived from human pluripotent embryonic stem cells (PESCs); assay: Morphological features by alpha-actinin immunofluorescence; conditions: 100 ng/ml T3 in culture medium composition, 5 days, compared to medium lacking T3
Description: Foetal-like (immature) cardiomyocytes derived from PESC in in vitro culture were divided in two experimental groups. The first group was exposed to a culture medium composition as taught herein but which lacked T3 (control situation). The second group was exposed to a culture medium composition as taught herein but which comprised T3 (100 ng/ml). Both groups were incubated in their respective culture medium composition for 5 days, At the term of the treatment, cardiomyocytes from both experimental groups were fixed in 4% paraformaldehyde, permeabilised with phosphate buffer saline (PBS)/0.1% Triton X-100 (Sigma-Aldrich), and blocked with phosphate buffer saline (PBS)/0.1% Triton X-100 (Sigma-Aldrich) 1% BSA. Samples were incubated 1-hour at room temperature with a primary antibodies specific for the following: alpha-actinin (Eptomics Ab 68167) (at a concentration of 1/400), The primary antibody was detected with either Cy3- or Alexa-Fluor 647-conjugated secondary antibodies (at a concentration of 1/250). Images were captured using either a Leica SP5-STED or a Leica SP5 confocal laser-scanning microscope (Leica Microsystems).

[2] = test system: foetal-like (immature) cardiomyocytes derived from human pluripotent embryonic stem cells (PESCs); assay: Electrophysiological properties by perforated patch clamp; conditions: 100 ng/ml T3 in culture medium, 12 days, compared to medium lacking T3
Description: Foetal-like (immature) cardiomyocytes derived from PESC in in vitro culture were divided in two experimental groups. The first group was exposed to a culture medium composition as taught herein but which lacked T3 (control situation). The second group was exposed to a culture medium composition as taught herein but which comprised T3 (100 ng/ml). Both groups were incubated in their respective culture medium composition for 12 days. At the term of the treatment, foetal-like (immature) cardiomyocytes from both experimental groups were subjected to a patch clamp procedure.
Patch clamp electrophysiology was performed as described by Bellin, M. et al. EMBO J 32, 3161-3175 (2013)). using minor modifications. Action potentials from small groups of cells (5-10 cells) were measured with the perforated patch clamp technique using an Axopatch 200b amplifier (Molecular Devices) and low resistance patch pipettes (1.5-2.5 MΩ). Data acquisition and analyses of action potentials were performed with pClamp 10 (axon instruments) and custom made software. Action Potentials were corrected for the calculated liquid junction potential (−15 mV).
Action potentials from spontaneous beating cells were measured at […] using a modified Tyrode's solution containing (in mM): 140 NaCl, 5.4 KCl, 1.8 CaCl2, 1.0 MgCl2, 5.5 glucose, 5.0 HEPES; pH7.2 (NaOH). The pipette solution contained (in mM): 125 K-gluconate, 20 KCl, 5 NaCl, 0.22 amphotericin-B, 10 HEPES; pH 7.2 (KOH). The resting membrane potential (RMP), maximal upstroke velocity (dV/dt max), AP amplitude in mV (APA), and AP duration in milli-seconds (APD) at 20, 50 and 90% repolarization (APD50, and APD90, respectively) were analyzed. Upstroke velocity was calculated from the first derivative of the change in voltage as a function of time. Thus the maximum upstroke velocity (dV/dt max) is equal to the maximum positive value of the first derivative of the action potential. Data from 10 consecutive action potentials were averaged.

[3] = test system: foetal-like (immature) cardiomyocytes derived from PESC; assay: Metabolic profile by TMRM assay (flow cytometry); conditions: 100 ng/ml T3 in culture medium, 17 days, 5 nM TMRM, compared to medium lacking T3
Description: Foetal-like (immature) cardiomyocytes derived from PESC in in vitro culture were divided in two experimental groups. The first group was exposed to a culture medium composition as taught herein but which lacked T3 (control situation). The second group was exposed to a culture medium composition as taught herein but which comprised T3 (100 ng/ml). Both groups were incubated in their respective culture medium composition for 17 days. An amount of 5 nM TMRM (Invitrogen) was added in the respective media the day before measurement. Cells were dissociated using 5× Tryple, but with TMRM included in all solutions and also present during measurement, Measurements were performed on a Miltenyi MACSquant VYB flow cytometer.

N[C@@H](Cc1cc(I)c(Oc2ccc(O)c(I)c2)c(I)c1)C(=O)O [T3, triiodothyronine]
morphological features (maturation into adult-like cardiomyocytes) [1]: polarization of cells, improved sarcomeric organization, and elongated shape | amplitude of the action potential [2]: greater amplitude of the action potential; also recorded: increased amplitude of the action potential | maximal upstroke velocity (dV/dt max) [2]: greater maximal upstroke velocity; also recorded: increased maximum upstroke velocity | resting membrane potential [2]: lower resting membrane potential | mitochondrial activity (TMRM-associated orange fluorescence) [3]: enhanced mitochondrial activity; also recorded: increased mitochondrial activity
